The target of data set [1] is Platelet-derived growth factor receptor alpha (Homo sapiens, UniProt P16234).
Description: Inhibition of PDGFR-alpha (unknown origin)
Data set [2] has as its target T1, Receptor-type tyrosine-protein kinase FLT3 (Homo sapiens, UniProt P36888).
T1 sequence (P36888 whole entry): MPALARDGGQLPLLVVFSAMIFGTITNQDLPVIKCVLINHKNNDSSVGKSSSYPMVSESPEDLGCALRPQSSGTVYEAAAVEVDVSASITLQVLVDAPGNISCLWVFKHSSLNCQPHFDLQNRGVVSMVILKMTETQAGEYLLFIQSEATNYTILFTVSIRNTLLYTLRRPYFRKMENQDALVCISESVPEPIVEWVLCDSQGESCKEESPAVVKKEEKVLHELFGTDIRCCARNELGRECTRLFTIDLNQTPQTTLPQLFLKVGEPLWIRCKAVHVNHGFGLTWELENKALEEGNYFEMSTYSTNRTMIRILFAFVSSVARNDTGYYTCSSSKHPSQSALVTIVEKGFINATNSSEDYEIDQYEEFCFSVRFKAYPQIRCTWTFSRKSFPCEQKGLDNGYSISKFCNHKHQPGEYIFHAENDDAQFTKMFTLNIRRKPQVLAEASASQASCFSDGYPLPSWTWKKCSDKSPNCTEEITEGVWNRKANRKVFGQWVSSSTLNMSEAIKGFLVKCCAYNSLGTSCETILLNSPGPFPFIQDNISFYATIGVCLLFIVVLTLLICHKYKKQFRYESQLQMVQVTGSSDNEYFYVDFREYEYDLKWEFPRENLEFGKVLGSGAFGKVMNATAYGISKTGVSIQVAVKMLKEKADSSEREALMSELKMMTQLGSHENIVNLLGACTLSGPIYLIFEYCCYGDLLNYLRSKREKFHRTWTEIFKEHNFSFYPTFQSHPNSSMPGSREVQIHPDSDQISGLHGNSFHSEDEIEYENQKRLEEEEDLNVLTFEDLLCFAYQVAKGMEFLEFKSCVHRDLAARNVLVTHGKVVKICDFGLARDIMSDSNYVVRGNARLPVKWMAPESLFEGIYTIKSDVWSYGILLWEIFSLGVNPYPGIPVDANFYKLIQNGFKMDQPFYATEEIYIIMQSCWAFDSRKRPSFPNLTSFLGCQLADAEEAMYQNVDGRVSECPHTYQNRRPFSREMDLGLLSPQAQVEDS
Description: Inhibition of FLT3 (unknown origin)

For data set [3], the target named is Platelet-derived growth factor receptor beta (Homo sapiens, UniProt P09619).
Platelet-derived growth factor receptor beta, sequence (P09619 whole entry): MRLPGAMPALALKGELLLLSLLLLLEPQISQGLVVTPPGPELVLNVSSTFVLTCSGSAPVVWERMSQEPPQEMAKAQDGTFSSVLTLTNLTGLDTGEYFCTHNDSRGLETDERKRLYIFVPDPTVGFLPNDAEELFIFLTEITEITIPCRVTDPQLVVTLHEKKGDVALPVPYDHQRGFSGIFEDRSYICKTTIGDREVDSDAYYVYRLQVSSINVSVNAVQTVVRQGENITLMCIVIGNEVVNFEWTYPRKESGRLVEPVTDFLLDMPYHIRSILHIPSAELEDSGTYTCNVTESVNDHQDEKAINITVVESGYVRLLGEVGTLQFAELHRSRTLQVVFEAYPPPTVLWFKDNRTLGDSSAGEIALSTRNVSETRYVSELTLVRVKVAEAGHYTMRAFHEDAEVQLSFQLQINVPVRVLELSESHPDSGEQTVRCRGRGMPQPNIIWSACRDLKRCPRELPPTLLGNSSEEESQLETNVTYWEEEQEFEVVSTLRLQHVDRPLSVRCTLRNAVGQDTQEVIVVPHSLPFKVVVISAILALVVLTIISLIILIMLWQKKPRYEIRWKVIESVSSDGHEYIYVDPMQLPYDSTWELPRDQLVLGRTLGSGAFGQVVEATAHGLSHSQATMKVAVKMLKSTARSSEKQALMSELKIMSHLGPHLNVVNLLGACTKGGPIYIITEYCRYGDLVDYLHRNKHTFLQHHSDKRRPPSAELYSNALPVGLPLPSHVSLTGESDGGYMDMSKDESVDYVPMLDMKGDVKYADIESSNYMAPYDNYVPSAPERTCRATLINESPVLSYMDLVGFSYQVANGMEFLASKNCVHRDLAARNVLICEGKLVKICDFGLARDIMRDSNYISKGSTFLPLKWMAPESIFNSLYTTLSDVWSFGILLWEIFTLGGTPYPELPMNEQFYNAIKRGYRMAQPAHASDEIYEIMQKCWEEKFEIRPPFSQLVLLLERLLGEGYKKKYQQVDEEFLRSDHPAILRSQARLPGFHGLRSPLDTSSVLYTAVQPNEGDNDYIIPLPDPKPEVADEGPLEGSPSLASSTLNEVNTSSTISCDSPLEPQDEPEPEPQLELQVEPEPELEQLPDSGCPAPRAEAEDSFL
Description: Inhibition of PDGFR-beta (unknown origin)
In data set [4] the target is Vascular endothelial growth factor receptor 2 (Homo sapiens, UniProt P35968). Put plainly: Inhibition of KDR (unknown origin).
Vascular endothelial growth factor receptor 2, sequence (P35968 whole entry): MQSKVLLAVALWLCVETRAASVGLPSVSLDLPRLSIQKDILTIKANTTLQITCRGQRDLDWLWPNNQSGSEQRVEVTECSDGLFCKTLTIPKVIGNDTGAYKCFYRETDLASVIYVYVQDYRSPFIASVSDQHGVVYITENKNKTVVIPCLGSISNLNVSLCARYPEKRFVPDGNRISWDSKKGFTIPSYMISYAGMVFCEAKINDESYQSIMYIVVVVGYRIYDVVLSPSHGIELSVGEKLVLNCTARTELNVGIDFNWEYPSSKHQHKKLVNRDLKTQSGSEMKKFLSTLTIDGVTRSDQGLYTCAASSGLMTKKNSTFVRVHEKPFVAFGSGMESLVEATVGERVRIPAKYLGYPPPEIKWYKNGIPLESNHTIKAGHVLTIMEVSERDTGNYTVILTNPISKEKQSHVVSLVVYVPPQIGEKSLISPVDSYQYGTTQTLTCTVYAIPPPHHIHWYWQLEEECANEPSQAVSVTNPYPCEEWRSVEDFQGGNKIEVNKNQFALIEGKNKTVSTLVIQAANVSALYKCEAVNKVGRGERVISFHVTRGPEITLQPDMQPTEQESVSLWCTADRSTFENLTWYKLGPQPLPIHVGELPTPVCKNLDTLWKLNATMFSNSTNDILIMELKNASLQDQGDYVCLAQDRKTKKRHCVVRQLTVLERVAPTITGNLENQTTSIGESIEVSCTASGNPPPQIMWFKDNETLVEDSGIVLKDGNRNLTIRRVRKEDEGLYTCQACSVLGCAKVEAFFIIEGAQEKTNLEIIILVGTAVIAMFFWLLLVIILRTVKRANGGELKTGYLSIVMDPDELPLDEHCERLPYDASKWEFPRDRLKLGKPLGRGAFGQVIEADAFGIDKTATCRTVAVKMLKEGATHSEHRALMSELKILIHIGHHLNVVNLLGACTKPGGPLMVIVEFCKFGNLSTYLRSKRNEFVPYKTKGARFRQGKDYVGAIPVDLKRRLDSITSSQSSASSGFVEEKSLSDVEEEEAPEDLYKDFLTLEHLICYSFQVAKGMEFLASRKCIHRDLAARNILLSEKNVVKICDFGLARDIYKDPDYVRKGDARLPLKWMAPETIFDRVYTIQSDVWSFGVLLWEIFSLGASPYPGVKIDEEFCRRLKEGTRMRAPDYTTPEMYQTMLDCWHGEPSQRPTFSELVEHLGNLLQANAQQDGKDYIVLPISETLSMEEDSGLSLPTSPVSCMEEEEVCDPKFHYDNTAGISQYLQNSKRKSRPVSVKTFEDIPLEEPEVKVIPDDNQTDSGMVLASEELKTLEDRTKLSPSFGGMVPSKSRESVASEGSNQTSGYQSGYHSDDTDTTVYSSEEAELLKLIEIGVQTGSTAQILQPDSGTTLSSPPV
Data set [5] can be described thus: Anti-proliferative activity against human KATO III cells.
The next data set has as its system HCT-116. Kind of data set: cells. As to conditions: Homo sapiens.
The nature of data set [6]: Toxicity in BALB/c mouse xenografted with human Hep3B cells assessed as body weight loss at 60 mg/kg, po qd measured for 25 days. The class given is organism-based. As to conditions: in vivo, 600 h, time 25 day. For orientation: In xenograft studies the graft and the host belong to different species.
Another data set has as its system SNU-16. Put plainly: Anti-proliferative activity against human SNU-16 cells. The class given is functional, cell-based.
For data set [7], the system named is Hep 3B2. Kind of data set: Anti-proliferative activity against human Hep3B cells.
The subject of data set [8] is Hep 3B2. Put plainly: Antitumor activity against human Hep3B cells xenografted in BALB/c mouse at 60 mg/kg, po qd treated for 10 days followed by discontinuation of administration and re-continuation on day 18 measured after 7 days relative to control. As to conditions: read-out: TGI.
The next data set concerns HT-29. Kind of data set: Anti-proliferative activity against human HT-29 cells.
The subject of a further data set is Huh-7. Put plainly: Anti-proliferative activity against human Huh-7 cells.
A further data set concerns HepG2. Put plainly: Anti-proliferative activity against human HepG2 cells.
Data set [9] has as its target Voltage-gated inwardly rectifying potassium channel KCNH2 (Homo sapiens, UniProt Q12809). Put plainly: Inhibition of hERG. It counts as toxicity. A general note: The hERG channel carries a current that helps repolarise heart muscle cells.

Platelet-derived growth factor receptor alpha, sequence (P16234 whole entry): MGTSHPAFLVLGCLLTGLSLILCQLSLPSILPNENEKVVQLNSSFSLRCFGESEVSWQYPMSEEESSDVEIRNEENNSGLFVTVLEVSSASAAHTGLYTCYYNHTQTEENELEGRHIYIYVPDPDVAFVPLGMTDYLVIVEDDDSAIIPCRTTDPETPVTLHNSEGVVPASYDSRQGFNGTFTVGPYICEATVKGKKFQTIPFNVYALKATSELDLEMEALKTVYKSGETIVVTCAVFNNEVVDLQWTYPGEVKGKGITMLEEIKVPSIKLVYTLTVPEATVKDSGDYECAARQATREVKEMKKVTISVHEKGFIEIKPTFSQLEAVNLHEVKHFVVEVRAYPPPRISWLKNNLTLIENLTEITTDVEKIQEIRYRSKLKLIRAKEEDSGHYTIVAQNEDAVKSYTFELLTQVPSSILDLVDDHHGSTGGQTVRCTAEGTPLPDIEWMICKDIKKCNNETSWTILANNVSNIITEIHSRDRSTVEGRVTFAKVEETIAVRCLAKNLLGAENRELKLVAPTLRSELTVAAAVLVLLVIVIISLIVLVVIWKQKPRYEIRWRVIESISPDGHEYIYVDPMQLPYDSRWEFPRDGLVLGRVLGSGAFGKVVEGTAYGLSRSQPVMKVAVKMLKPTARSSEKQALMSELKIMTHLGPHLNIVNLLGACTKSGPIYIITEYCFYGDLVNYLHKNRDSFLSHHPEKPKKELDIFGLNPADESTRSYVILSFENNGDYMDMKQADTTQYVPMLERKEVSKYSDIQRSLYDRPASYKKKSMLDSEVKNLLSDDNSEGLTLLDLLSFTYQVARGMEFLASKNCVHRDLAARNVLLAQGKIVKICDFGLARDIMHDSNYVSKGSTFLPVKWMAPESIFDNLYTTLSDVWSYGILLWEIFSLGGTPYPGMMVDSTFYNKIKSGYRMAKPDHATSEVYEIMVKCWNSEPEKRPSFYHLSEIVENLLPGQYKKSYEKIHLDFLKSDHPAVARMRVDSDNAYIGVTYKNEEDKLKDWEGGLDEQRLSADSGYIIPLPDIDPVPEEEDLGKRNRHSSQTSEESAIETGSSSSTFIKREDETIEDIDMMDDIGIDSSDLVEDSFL
Voltage-gated inwardly rectifying potassium channel KCNH2, sequence (Q12809 whole entry): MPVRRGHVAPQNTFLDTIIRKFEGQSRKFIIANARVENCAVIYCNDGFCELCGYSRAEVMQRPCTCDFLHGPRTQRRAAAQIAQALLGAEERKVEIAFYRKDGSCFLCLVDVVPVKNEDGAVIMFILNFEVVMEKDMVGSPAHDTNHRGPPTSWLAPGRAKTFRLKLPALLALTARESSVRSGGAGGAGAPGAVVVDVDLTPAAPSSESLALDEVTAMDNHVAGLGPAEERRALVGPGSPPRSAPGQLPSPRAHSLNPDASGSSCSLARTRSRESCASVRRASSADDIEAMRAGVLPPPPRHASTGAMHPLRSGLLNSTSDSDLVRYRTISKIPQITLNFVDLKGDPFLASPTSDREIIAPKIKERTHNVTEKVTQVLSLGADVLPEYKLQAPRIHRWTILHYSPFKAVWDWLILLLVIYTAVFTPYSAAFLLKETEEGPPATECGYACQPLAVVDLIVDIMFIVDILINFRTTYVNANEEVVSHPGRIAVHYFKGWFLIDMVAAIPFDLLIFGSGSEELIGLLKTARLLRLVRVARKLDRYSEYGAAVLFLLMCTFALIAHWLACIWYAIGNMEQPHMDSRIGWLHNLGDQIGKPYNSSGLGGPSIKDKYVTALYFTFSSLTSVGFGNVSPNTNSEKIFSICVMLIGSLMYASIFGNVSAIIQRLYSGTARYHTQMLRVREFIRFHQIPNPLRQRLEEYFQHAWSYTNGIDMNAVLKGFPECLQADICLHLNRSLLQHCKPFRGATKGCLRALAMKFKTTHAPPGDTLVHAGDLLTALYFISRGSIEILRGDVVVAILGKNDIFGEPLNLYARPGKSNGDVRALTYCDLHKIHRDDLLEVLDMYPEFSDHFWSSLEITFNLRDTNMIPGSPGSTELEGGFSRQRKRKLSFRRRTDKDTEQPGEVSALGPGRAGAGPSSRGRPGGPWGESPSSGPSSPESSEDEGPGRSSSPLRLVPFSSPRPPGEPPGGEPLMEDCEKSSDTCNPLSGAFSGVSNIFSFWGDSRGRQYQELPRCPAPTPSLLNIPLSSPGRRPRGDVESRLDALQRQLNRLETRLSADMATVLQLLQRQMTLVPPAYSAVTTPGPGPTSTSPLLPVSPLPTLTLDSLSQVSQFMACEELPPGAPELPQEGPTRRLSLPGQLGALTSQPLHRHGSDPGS
Description for HCT-116: Anti-proliferative activity against human HCT-116 cells

By IC50 is commonly meant the point on the concentration scale where inhibition reaches its midpoint. The low end stands for greater potency, the high end for weaker potency. Regarding `CC(C)(C)c1cc(NC(=O)Cc2ccc(-n3cnc4cc(-c5cccnc5)ccc43)cc2)on1`, the 50% inhibitory concentration (IC50) came to 0.28 nM in data set [1], 0.73 nM in data set [2] and 1.3 nM in data set [3].

On to `CC(C)(C)OC(=O)Cn1cc(-c2ccc3c(c2)ncn3-c2ccc(CC(=O)Nc3cc(C(C)(C)C)no3)cc2)cn1`, for which the IC50 in data set [4] is 6.5 nM.

Regarding `CC(C)(C)c1cc(NC(=O)Cc2ccc(-n3cnc4cc(C5CCNCC5)ccc43)cc2)on1`, the results for the half-maximal inhibitory concentration (IC50) in data set [1], in data set [2] and in data set [3] were 11 nM, 22 nM and 12 nM, respectively.

As to `CNC(=O)c1cc(Oc2ccc(NC(=O)Nc3ccc(Cl)c(C(F)(F)F)c3)cc2)ccn1` [SORAFENIB], the concentration for half-maximal inhibition (IC50) amounted to 569 nM in data set [5]; 4430 nM in the data set on HCT-116; 954 nM in the data set on SNU-16; 3330 nM with Hep 3B2 [7]; 5350 nM in the data set with HT-29. Besides, the Activity in data set [6] is on record as ~ 16.32%. Further, the inhibition in vivo at 60 mg/kg in the data set with Hep 3B2 [8] was found to be 34%.

For the molecule `COc1cc2nccc(Oc3ccc(NC(=O)C4(C(=O)Nc5ccc(F)cc5)CC4)cc3)c2cc1OC` [CABOZANTINIB], the 50% inhibitory concentration (IC50) in the data set with Huh-7 is 3660 nM; in the data set with HCT-116 it was 7260 nM; in the data set with HepG2 it was 3660 nM; with Hep 3B2 [7] it was 6500 nM; with HT-29, 5840 nM.

Turning to `CC(C)(C)c1cc(NC(=O)Cc2ccc(-n3cnc4cc(-c5cn[nH]c5)ccc43)cc2)on1`, the 50% inhibitory concentration (IC50) in [1] was 0.18 nM; in [2] it was 0.33 nM; in data set [3], 0.89 nM; in data set [9], 26500 nM.

On to `Cn1cc(-c2ccc3c(c2)ncn3-c2ccc(CC(=O)Nc3cc(C(C)(C)C)no3)cc2)cn1`, for which the concentration for half-maximal inhibition (IC50) in data set [1] came to 0.22 nM; in data set [2], 0.59 nM; in [3], 1.15 nM; in data set [9], 17900 nM.

Source of the values: ChEMBL document CHEMBL6083222, “Discovery of novel, orally bioavailable phenylacetamide derivatives as multikinase inhibitors and in vivo efficacy study in hepatocellular carcinoma animal models” (Bioorg Med Chem Lett, 2024).
